This is an account of results in patent publication US11220491B2, “Photoprotective compositions containing Malassezia-derived compounds and/or chemical analogs thereof” (Versicolor Technologies, LLC, priority 2018, dated 2022).

Values joined by “and” are separate entries in the source; they are usually repeats but may differ in a detail not shown here. Equal entries are not always repeated.

The first assay has as its target T1, arylhydrocarbon receptor (AhR) (Homo sapiens, UniProt P35869).
T1 sequence (P35869 11-848): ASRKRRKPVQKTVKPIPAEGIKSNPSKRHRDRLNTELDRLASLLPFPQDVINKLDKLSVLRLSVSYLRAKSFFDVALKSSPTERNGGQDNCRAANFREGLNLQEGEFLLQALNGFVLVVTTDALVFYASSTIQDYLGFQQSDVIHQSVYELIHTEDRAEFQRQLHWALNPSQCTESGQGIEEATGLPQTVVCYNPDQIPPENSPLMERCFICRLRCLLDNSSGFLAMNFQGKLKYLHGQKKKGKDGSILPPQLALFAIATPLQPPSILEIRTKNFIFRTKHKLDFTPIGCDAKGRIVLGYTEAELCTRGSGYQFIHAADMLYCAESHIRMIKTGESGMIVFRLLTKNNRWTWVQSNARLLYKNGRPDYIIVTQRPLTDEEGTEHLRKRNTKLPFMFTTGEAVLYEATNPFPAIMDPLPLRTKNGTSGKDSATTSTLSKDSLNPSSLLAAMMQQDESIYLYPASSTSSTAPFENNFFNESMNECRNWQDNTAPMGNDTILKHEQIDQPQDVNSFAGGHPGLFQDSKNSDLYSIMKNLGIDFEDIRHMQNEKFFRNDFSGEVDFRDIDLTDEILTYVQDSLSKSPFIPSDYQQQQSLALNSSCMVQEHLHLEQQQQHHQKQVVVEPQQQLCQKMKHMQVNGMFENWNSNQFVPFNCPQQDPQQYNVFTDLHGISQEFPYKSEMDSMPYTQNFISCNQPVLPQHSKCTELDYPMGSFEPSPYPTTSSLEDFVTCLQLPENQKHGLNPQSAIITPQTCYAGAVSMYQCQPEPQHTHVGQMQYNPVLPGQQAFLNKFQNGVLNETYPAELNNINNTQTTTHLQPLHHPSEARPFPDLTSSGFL
The experiment in a line: HepG2-AhR-Luciferase assay.
Details: not given
What is called EC50 is the concentration that produces a half-maximal response. Take `Cc1ccc2cc3c(ccc4ccccc43)c3c2c1CC3` [Compound 3-MC, 3-methylcholanthrene, reference compound]: the EC50 came to 4.34 µM. In other words, the single-digit micromolar range.

Still in this assay, the particulars now being: EC50 (uM), Table 1; 24 hours of treatment.
On to `OCc1c(Cc2c[nH]c3ccccc23)[nH]c2ccccc12` [CV-8803], for which the EC50 was found to be 13.9 µM. In other words, the double-digit micromolar range. On the same count and under the same terms, under `CC(c1[nH]c2ccccc2c1CO)c1c[nH]c2ccccc12` (stereo not shown) [CV-8804] stands 15.7 µM; under `COc1ccc2[nH]c([S+]([O-])Cc3ncc(C)c(OC)c3C)nc2c1` (stereo not shown) [Omeprazole, omeprazole, reference compound], 21.4 µM.

The assay is the same for the next values; noted with them: EC50 (uM), Table 2; 24 hours of treatment.
In turn, `O=C(Cc1c[nH]c2ccccc12)Cc1c[nH]c2ccccc12` [AB12976] returned an EC50 of 16.5 µM. Still for that read-out and setting: then `O=C[C@@H]1Cc2c([nH]c3ccccc23)[C@@H](c2c[nH]c3ccccc23)CN1` [AB17011, Malassezia Indole A], with 35.8 µM.

`O=C(c1c[nH]c2ccccc12)c1nccc2c1[nH]c1ccccc12` [AB17014, Pityriacitrin] came in with an EC50 of 3.46 µM. Against the preceding molecule, the EC50 is about 10-fold lower. With `COC(=O)c1c(C(c2c[nH]c3ccccc23)C2CC2)[nH]c2ccccc12` (stereo not shown) [AB17151], the EC50 was 13.7 µM. In turn, `Cc1ccc2c(c1)[nH]c1c(C)c3c(cc12)[nH]c1ccccc13` [AB17225] registered an EC50 of 3.93 µM. Consider `O=Cc1c(C(=O)c2c[nH]c3ccccc23)[nH]c2ccccc12` [Compound A5 (CV-8819)], for which the EC50 was 4.11 µM.

`CC(c1[nH]c2ccccc2c1C(=O)O)c1c[nH]c2ccccc12` (stereo not shown) [Compound B10] had an EC50 of 4.29 µM. Still for that read-out and setting: then `COC(c1[nH]c2ccccc2c1C=O)c1c[nH]c2ccccc12` (stereo not shown) [Compound H (AB12509)], with 11.6 µM; and `Cc1ccc2c(Cc3[nH]c4ccccc4c3C=O)c[nH]c2c1` [Compound I (CV-8686)], with 5.45 µM. The same measure, in the same setting: under `CC(c1[nH]c2ccccc2c1C=O)c1c[nH]c2ccccc12` (stereo not shown) [Compound II (CV-8688] stands 13.4 µM. `Cc1ccc2c(c1)[nH]c1cc3c(cc12)[nH]c1ccccc13` [Compound IV (CV-8687)] returned an EC50 of 33.6 µM. Same read-out and setting: then `c1ccc2[nH]c(Cc3c[nH]c4ccccc34)cc2c1` [Malassezin Precursor], with 37.3 µM.

Regarding `COc1ccc2[nH]c([S+]([O-])Cc3ncc(C)c(OC)c3C)nc2c1` (stereo not shown) [Omeprazole, omeprazole, reference compound], the EC50 is 42.3 µM and 39.8 µM. Still for that read-out and setting: then `Clc1cc2c(cc1Cl)Oc1cc(Cl)c(Cl)cc1O2` [TCDD, 2,3,7,8-tetrachlorodibenzodioxin, reference compound], with 0.0018 µM and 0.0031 µM.

Another assay addresses T1, arylhydrocarbon receptor (AhR).
Test: not given
Details: HepG2 cells stably transfected with an AhR-responsive luciferase reporter gene plasmid; host or cells: HepG2-AhR-Luc (HepG2 stably transfected with an AhR-responsive luciferase reporter plasmid). To be noted: cited from earlier work.
On to `O=Cc1c2[nH]c3ccccc3c2cc2[nH]c3ccccc3c12` [6-formylindolo[3,2-b] carbazole (FICZ), 6-formylindolo[3,2-b] carbazole], for which the AhR agonism result is recorded as “Agonists”. On to `O=C1Nc2ccccc2/C1=C1/Nc2ccccc2C1=O` [Indirubin], for which the AhR agonism result is on record as “known agonist”.

As for `Nc1c(C(=O)O)c2nc3c(C(=O)O)cccc3oc-2cc1=O` [cinnabarinic acid], the AhR agonism entry was “Agonists”. Consider `Nc1ccccc1C(=O)CC(N)C(=O)O` (stereo not shown) [kynurenine], for which the AhR agonism entry is “Agonists”.
